# In patent US10695321B2, “Use of glycopyrrolate for treating tachycardia” (Heptares Therapeutics Limited, priority 2011, dated 2020):
# Test system: subjects with COPD
# Experiment: Phase IIa placebo-controlled crossover dose-ranging study, heart rate (vital signs) after single inhaled dose
# Type: in vivo, human
# Conditions: for Adjusted Mean for Average Change in Heart Rate from Test day Baseline: ANCOVA
# Procedure: The study was a Phase IIa, multi-centre, randomised, double-blind, placebo-controlled, crossover, dose-ranging study using four dose levels of glycopyrronium bromide in subjects with COPD. A total of 40 subjects were required to complete the study.
# Subjects were randomised to receive a single inhaled dose of 20, 125, 250 and 400 μg of glycopyrronium bromide in ascending order, with a placebo dose randomised into the sequence over 5 study visits. Subjects were randomised to receive treatment on Study Day 1 prior to dosing. All doses, including placebo, were administered using the Miat Monohaler.
# The Treatment period then consisted of five study visits (separated by a 5-14-day wash-out period), during which subjects were dosed with a single inhaled dose of glycopyrronium bromide using a Miat Monohaler, in ascending order (20, 125, 250 or 400 μg). A placebo was randomly administered (using a Miat Monohaler) at one of the study visits; subsequent visits continued with the next highest dose of glycopyrronium bromide to that which was administered prior to the placebo.
# All subjects were scheduled to be dosed between 08:00 and 10:00 am. For individual subjects, dosing was at the same time of day (±30 minutes). At each dosing visit, subjects received a single dose of glycopyrronium bromide or placebo administered via Miat Monohaler. Each different dose (20, 125, 250 or 400 μg) was contained in one capsule. An appropriate number of Miat Monohalers to conduct the study was also supplied to the site. A new Miat Monohaler was used to administer each dose at each visit.
# copyrronium bromide was presented in size 3, white opaque, hard, gelatin capsules packaged in aluminium pouches. The capsules were presented in four dose strengths containing 20, 125, 250, or 400 μg glycopyrronium bromide. In addition to glycopyrronium bromide, excipient present in the capsule formulation consisted of the PowderHale^TM formulation of lactose and magnesium stearate.
# All vital signs were measured on each study day, including heart rate (with the subject semi-supine for 5 minutes prior to measurement); blood pressure; respiratory rate and temperature were measured at each visit and before receiving study medication (pre-treatment), if applicable. Blood pressure and heart rate were also measured at 45, 90 minutes and 5, 10, 20 and 30 hours post-treatment on study days.
# The statistical analyses were to be reported using summary tables and data listings. Statistical tests for the evaluation were to be performed at the 0.05 significance level using a two-sided test.
# All analyses and tabulations were to be performed using SASS Version 6.12 on a PC platform. Continuous variables were to be summarised with sample size (n), mean, standard deviation (SD), minimum, median, and maximum. […] The mean was to have one extra decimal place and the standard deviation was to have two extra decimal places. Categorical variables were to be summarised with number and percentage of subjects.
# [1] = 250 μg single inhaled dose, 90 mins post-dose
# [2] = 250 μg single inhaled dose, 5 hrs post-dose
# [3] = 250 μg single inhaled dose, 10 hrs post-dose
# [4] = 250 μg single inhaled dose, 20 hrs post-dose
# [5] = 250 μg single inhaled dose, 30 hrs post-dose
# [6] = 250 μg single inhaled dose, pre-dose to 45 mins post-dose
# [7] = 250 μg single inhaled dose, pre-dose to 90 mins post-dose
# [8] = 250 μg single inhaled dose, pre-dose to 5 hours post-dose
# [9] = 250 μg single inhaled dose, pre-dose to 10 hours post-dose
# [10] = 250 μg single inhaled dose, pre-dose to 20 hours post-dose
# [11] = 250 μg single inhaled dose, pre-dose to 30 hours post-dose
# [12] = 400 μg single inhaled dose, 45 mins post-dose
# [13] = 400 μg single inhaled dose, 90 mins post-dose
# [14] = 400 μg single inhaled dose, 5 hrs post-dose
# [15] = 400 μg single inhaled dose, 10 hrs post-dose
# [16] = 400 μg single inhaled dose, 20 hrs post-dose
# [17] = 400 μg single inhaled dose, 30 hrs post-dose
# [18] = 400 μg single inhaled dose, pre-dose to 45 mins post-dose
# [19] = 400 μg single inhaled dose, pre-dose to 90 mins post-dose
# [20] = 400 μg single inhaled dose, pre-dose to 10 hours post-dose
# [21] = 400 μg single inhaled dose, pre-dose to 30 hours post-dose
smiles,measurement,setting,value
C[N+]1(C)CCC(OC(=O)C(O)(c2ccccc2)C2CCCC2)C1 (stereo not drawn) [glycopyrronium bromide],Heart Rate Median,"250 μg single inhaled dose, 45 mins post-dose",64.0 bpm
same,Heart Rate Mean,[1],68.2 bpm
same,Heart Rate Median,[1],69.0 bpm
same,Heart Rate Mean,[2],68.4 bpm
same,Heart Rate Median,[2],68.5 bpm
same,Heart Rate Mean,[3],66.3 bpm
same,Heart Rate Median,[3],65.0 bpm
same,Heart Rate Mean,[4],66.6 bpm
same,Heart Rate Median,[4],65.0 bpm
same,Heart Rate Mean,[5],70.7 bpm
same,Heart Rate Median,[5],71.5 bpm
same,"Heart Rate Change from Test day Baseline, Mean",[6],−4.6 bpm
same,"Heart Rate Change from Test day Baseline, Median",[6],−4.5 bpm
same,"Heart Rate Change from Test day Baseline, Mean",[7],−1.7 bpm
same,"Heart Rate Change from Test day Baseline, Median",[7],−1.0 bpm
same,"Heart Rate Change from Test day Baseline, Mean",[8],−1.4 bpm
same,"Heart Rate Change from Test day Baseline, Median",[8],0.0 bpm
same,"Heart Rate Change from Test day Baseline, Mean",[9],−3.6 bpm
same,"Heart Rate Change from Test day Baseline, Median",[9],−4.0 bpm
same,"Heart Rate Change from Test day Baseline, Mean",[10],−3.4 bpm
same,"Heart Rate Change from Test day Baseline, Median",[10],−4.0 bpm
same,"Heart Rate Change from Test day Baseline, Mean",[11],1.0 bpm
same,"Heart Rate Change from Test day Baseline, Median",[11],2.5 bpm
same,Adjusted Mean for Average Change in Heart Rate from Test day Baseline,"250 μg, to 45 mins post-dose",−3.693 bpm
same,"Dose v Placebo Difference, adjusted mean change in Heart Rate from Test day Baseline","250 μg, to 45 mins post-dose, p-value 0.324",−1.364 bpm
same,Adjusted Mean for Average Change in Heart Rate from Test day Baseline,"250 μg, to 90 mins post-dose",−0.763 bpm
same,"Dose v Placebo Difference, adjusted mean change in Heart Rate from Test day Baseline","250 μg, to 90 mins post-dose, p-value 0.203",−2.035 bpm
same,Adjusted Mean for Average Change in Heart Rate from Test day Baseline,"250 μg, to 5 hours post-dose",−0.586 bpm
same,"Dose v Placebo Difference, adjusted mean change in Heart Rate from Test day Baseline","250 μg, to 5 hours post-dose, p-value 0.072",−2.633 bpm
same,Adjusted Mean for Average Change in Heart Rate from Test day Baseline,"250 μg, to 10 hours post-dose",−4.657 bpm
same,"Dose v Placebo Difference, adjusted mean change in Heart Rate from Test day Baseline","250 μg, to 10 hours post-dose, p-value 0.078",−2.832 bpm
same,Adjusted Mean for Average Change in Heart Rate from Test day Baseline,"250 μg, to 20 hours post-dose",−1.858 bpm
same,"Dose v Placebo Difference, adjusted mean change in Heart Rate from Test day Baseline","250 μg, to 20 hours post-dose, p-value 0.773",−0.390 bpm
same,Adjusted Mean for Average Change in Heart Rate from Test day Baseline,"250 μg, to 30 hours post-dose",1.436 bpm
same,"Dose v Placebo Difference, adjusted mean change in Heart Rate from Test day Baseline","250 μg, to 30 hours post-dose, p-value 0.581",0.817 bpm
same,Statistical significance (p) of heart rate change relative to placebo,"400 μg dose, 45 minute to 10 hour timepoints inclusive",< 0.05
same,Heart Rate Mean,[12],65.4 bpm
same,Heart Rate Median,[12],65.0 bpm
same,Heart Rate Mean,[13],67.1 bpm
same,Heart Rate Median,[13],67.5 bpm
same,Heart Rate Mean,[14],69.7 bpm
same,Heart Rate Median,[14],69.0 bpm
same,Heart Rate Mean,[15],65.7 bpm
same,Heart Rate Median,[15],65.5 bpm
same,Heart Rate Mean,[16],66.7 bpm
same,Heart Rate Median,[16],66.0 bpm
same,Heart Rate Mean,[17],70.9 bpm
same,Heart Rate Median,[17],70.0 bpm
same,"Heart Rate Change from Test day Baseline, Mean",[18],−7.4 bpm
same,"Heart Rate Change from Test day Baseline, Median",[18],−6.5 bpm
same,"Heart Rate Change from Test day Baseline, Mean",[19],−5.7 bpm
same,"Heart Rate Change from Test day Baseline, Median",[19],−4.5 bpm
same,"Heart Rate Change from Test day Baseline, Mean","400 μg single inhaled dose, pre-dose to 5 hours post-dose",−3.1 bpm
same,"Heart Rate Change from Test day Baseline, Mean",[20],−6.4 bpm
same,"Heart Rate Change from Test day Baseline, Median",[20],−5.5 bpm
same,"Heart Rate Change from Test day Baseline, Mean","400 μg single inhaled dose, pre-dose to 20 hours post-dose",−5.6 bpm
same,"Heart Rate Change from Test day Baseline, Mean",[21],−1.4 bpm
same,"Heart Rate Change from Test day Baseline, Median",[21],0.0 bpm
same,Adjusted Mean for Average Change in Heart Rate from Test day Baseline,"400 μg, to 45 mins post-dose",−7.052 bpm
same,"Dose v Placebo Difference, adjusted mean change in Heart Rate from Test day Baseline","400 μg, to 45 mins post-dose, p-value 0.005",−4.723 bpm
same,Adjusted Mean for Average Change in Heart Rate from Test day Baseline,"400 μg, to 90 mins post-dose",−4.315 bpm
same,"Dose v Placebo Difference, adjusted mean change in Heart Rate from Test day Baseline","400 μg, to 90 mins post-dose, p-value 0.004",−5.587 bpm
same,Adjusted Mean for Average Change in Heart Rate from Test day Baseline,"400 μg, to 5 hours post-dose",−3.455 bpm
same,"Dose v Placebo Difference, adjusted mean change in Heart Rate from Test day Baseline","400 μg, to 5 hours post-dose, p-value 0.002",−5.502 bpm
same,Adjusted Mean for Average Change in Heart Rate from Test day Baseline,"400 μg, to 10 hours post-dose",−6.919 bpm
same,"Dose v Placebo Difference, adjusted mean change in Heart Rate from Test day Baseline","400 μg, to 10 hours post-dose, p-value 0.008",−5.095 bpm
same,Adjusted Mean for Average Change in Heart Rate from Test day Baseline,"400 μg, to 20 hours post-dose",−2.371 bpm
same,"Dose v Placebo Difference, adjusted mean change in Heart Rate from Test day Baseline","400 μg, to 20 hours post-dose, p-value 0.583",−0.903 bpm
same,Adjusted Mean for Average Change in Heart Rate from Test day Baseline,"400 μg, to 30 hours post-dose",0.475 bpm
same,"Dose v Placebo Difference, adjusted mean change in Heart Rate from Test day Baseline","400 μg, to 30 hours post-dose, p-value 0.935",−0.143 bpm
same,"Mean heart rate from Test Day Baseline, dose relation","20-400 μg inhaled, up to 5 hours post-dose",dose dependent decrease
same,Subsequent tachycardic effect,"any of the inhaled doses, up to 30 hours",not evident
